This note sets out measurements from ChEMBL document CHEMBL1201862, “PubChem BioAssay data set” (2004).

Holding throughout (assay): NCI anticancer screen, dose series, 48 h
For test [1], the system named is UACC-257.
Test [2] deals with MDA-MB-435.
In test [3] the test system is UO-31.
For test [4], the system named is HOP-92.
For test [5], the system named is SF-295.
Test [6] concerns SNB-75.
For test [7], the system named is HL-60.
Test [8] concerns ACHN.
Test [9] has as its system SF-268.
The test system of test [10] is T47D.
In test [11] the test system is MDA-N.
Test [12] concerns A498.
Test [13] deals with RXF 393.
Test [14] relates to HOP-62.
The test system of test [15] is U-251.
The test system of test [16] is SR.
Test [17] has as its system SN12C.
The subject of test [18] is NCI-H23.
Test [19] relates to MDA-MB-231.
Test [20] relates to OVCAR-4.

Each structure is given as a SMILES string.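 Test compounds were applied to cells in 96-well plates for 48 hours at 5 doses. Abbreviation: GI50, concentration required for 50% inhibition of growth.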 Active and inactive are the calls of the source. No stated cut-off is given here; in the data, active = GI50 up to about 1.1 µM and inactive = higher.

On to `CC(C)(C)OC(=O)NC(Cc1ccc(OCc2ccccc2)cn1)C(=O)N1CCSCC1` (stereo not drawn), for which the GI50 in [1] was 26.4 µM (inactive); in [2], 28.6 µM (inactive); in test [3] it was 50.6 µM (inactive); in test [4], 47.4 µM (inactive); in test [5], 37.2 µM (inactive); in test [6], 24 µM (inactive). In addition, the GI50 was 16.4 µM (inactive) in [7]; 57.3 µM (inactive) in test [8]; 65.3 µM (inactive) in [9]; 20.8 µM (inactive) in test [10]; 40.8 µM (inactive) in [11]; 45.4 µM (inactive) in test [12]. The GI50 in [13] is 33.3 µM (inactive); in test [14], > 100 µM (inactive); in [15] it was 74.3 µM (inactive); in test [16], 27 µM (inactive); in [17], 44.6 µM (inactive); in [18], 28.6 µM (inactive). In addition, the GI50 in [19] is > 100 µM (inactive).
With `COc1ccc(C2SCC(=O)N2c2ccc(-c3ccc(-n4c(-c5ccccc5)nc5ccccc5c4=O)cc3)cc2)cc1OC` (stereo not drawn), the GI50 in test [1] was 61.5 µM (inactive); in [2] it was 33.3 µM (inactive); in [3], 44.2 µM (inactive); in [4], > 100 µM (inactive); in test [5] it was 16.8 µM (inactive); in test [6], 64.1 µM (inactive). In addition, the GI50 in test [20] is > 100 µM (inactive); in test [7] it was 30.8 µM (inactive); in test [9] it was 43.5 µM (inactive); in [10] it was 22.4 µM (inactive); in test [11], 59.7 µM (inactive); in [12], > 100 µM (inactive). The GI50 in [13] is > 100 µM (inactive); in test [14], 18 µM (inactive); in test [15], 43.8 µM (inactive); in [16], 26.2 µM (inactive); in test [17] it was > 100 µM (inactive); in [18] it was > 100 µM (inactive). For the same compound, in [19], the GI50 is 25.8 µM (inactive).
As to `C=C1CCCC(C)(C)C1CCC1(C)CCC(C(C)C(=O)OC)OO1` (stereo not drawn), the GI50 in [1] was > 20.2 µM (inactive); in test [2], 4.05 µM (inactive); in test [3], 0.748 µM (active); in [4], 0.764 µM (active); in [5], 4.48 µM (inactive); in [6] it was 3.15 µM (inactive). Besides, the GI50 in [20] was 4.9 µM (inactive); in test [7], 2.21 µM (inactive); in [8], 1.27 µM (inactive); in test [9], 3.57 µM (inactive); in test [10], 4.32 µM (inactive); in test [11], 3.73 µM (inactive). For the same compound, the GI50 was 5.87 µM (inactive) in test [12]; 4.04 µM (inactive) in [13]; 0.706 µM (active) in [14]; 2.94 µM (inactive) in test [15]; 3.02 µM (inactive) in test [16]; 3.77 µM (inactive) in test [17]. For the same compound, the GI50 was 3.78 µM (inactive) in [18] and 9.08 µM (inactive) in [19].
For the compound `COC(=O)[C@]12CC[C@H]3CN(C(=O)OCc4ccccc4)[C@H]([C@H]31)[C@H](C(=O)OCC[Si](C)(C)C)N2S(=O)(=O)c1ccc(C)cc1`, the GI50 is 20 µM (inactive) in [1]; > 100 µM (inactive) in test [2]; 30.3 µM (inactive) in test [3]; 3.13 µM (inactive) in test [4]; 29 µM (inactive) in test [5]; 11.4 µM (inactive) in [20]. For the same compound, the GI50 was 8.85 µM (inactive) in [7]; 54.7 µM (inactive) in [8]; > 100 µM (inactive) in test [9]; 5.32 µM (inactive) in test [10]; 74 µM (inactive) in [11]; 16.7 µM (inactive) in test [12]. Besides, the GI50 in [13] was 4.74 µM (inactive); in test [14], > 100 µM (inactive); in test [15], > 100 µM (inactive); in [16], 39.2 µM (inactive); in [17], > 100 µM (inactive); in test [18] it was > 100 µM (inactive). In addition, the GI50 in test [19] was 8.13 µM (inactive).
Take `O=C1CC(c2ccccc2)n2c(nc3ccccc32)N1` (stereo not drawn): the GI50 is 41.9 µM (inactive) in [1]; 37.8 µM (inactive) in test [2]; > 100 µM (inactive) in test [3]; 17.9 µM (inactive) in test [4]; > 100 µM (inactive) in test [5]; > 100 µM (inactive) in test [20]. Besides, the GI50 in [7] was 16.8 µM (inactive); in test [8] it was > 100 µM (inactive); in test [9], > 100 µM (inactive); in [10] it was 25.4 µM (inactive); in test [11], 73.5 µM (inactive); in test [12], 45.5 µM (inactive). Moreover, the GI50 was 21 µM (inactive) in test [13]; > 100 µM (inactive) in [14]; 71.8 µM (inactive) in test [15]; 36.2 µM (inactive) in [16]; 64.1 µM (inactive) in test [18]; > 100 µM (inactive) in test [19].
`CC/C(Cl)=N\OC(=O)Nc1ccc(OC)c(C)c1`: the GI50 was 16.5 µM (inactive) in test [1]; 34.2 µM (inactive) in [2]; 15.3 µM (inactive) in [3]; 2.82 µM (inactive) in [4]; 80.4 µM (inactive) in test [5]; 80 µM (inactive) in test [6]. Besides, the GI50 in test [20] was 16.2 µM (inactive); in [7], 3.5 µM (inactive); in [8], 8.93 µM (inactive); in test [9], 29.2 µM (inactive); in test [10] it was 13.9 µM (inactive); in test [11] it was 18.7 µM (inactive). Moreover, the GI50 in test [12] was 26.5 µM (inactive); in [13], 14.6 µM (inactive); in test [14], 34.4 µM (inactive); in test [15], 45.3 µM (inactive); in [16] it was 3.04 µM (inactive); in test [17], 15.9 µM (inactive). In addition, the GI50 in [18] was 15 µM (inactive); in [19] it was 30.6 µM (inactive).
As for `O=C(c1ccccc1)n1c(Cc2ccccc2)nc2cc(C34CC5CC(CC(C5)C3)C4)ccc21`, the GI50 in test [1] was 53.1 µM (inactive); in test [2], 92 µM (inactive); in test [3], 35.2 µM (inactive); in test [4] it was 24 µM (inactive); in test [5], 52.2 µM (inactive); in [6], 31.6 µM (inactive). Further, the GI50 is > 100 µM (inactive) in [20]; 33.7 µM (inactive) in test [7]; 34.8 µM (inactive) in test [8]; > 100 µM (inactive) in test [9]; 36.7 µM (inactive) in test [10]; 47 µM (inactive) in test [11]. For the same compound, the GI50 in test [12] was 62.1 µM (inactive); in test [13], 27.4 µM (inactive); in [14] it was 56.4 µM (inactive); in test [15], 44.6 µM (inactive); in test [16], 39.6 µM (inactive); in test [17], 35.8 µM (inactive). Besides, the GI50 in [18] was 27.4 µM (inactive); in test [19], 54.2 µM (inactive).
For `O=S1(=O)c2ccccc2NC(=S)N1c1ccccc1`, the GI50 in test [1] is 40 µM (inactive); in test [2] it was 50.1 µM (inactive); in test [3] it was 36.7 µM (inactive); in test [4], 3.89 µM (inactive); in [5] it was 3.49 µM (inactive); in test [6], 2.61 µM (inactive). The GI50 is 53.3 µM (inactive) in test [20]; 32 µM (inactive) in test [7]; 70.6 µM (inactive) in test [8]; 71.1 µM (inactive) in test [9]; 69.5 µM (inactive) in test [10]; 36 µM (inactive) in [11]. Besides, the GI50 in [12] was > 58.9 µM (inactive); in test [13], > 54.2 µM (inactive); in test [14], 7.1 µM (inactive); in test [15], > 72.3 µM (inactive); in [16], 44.8 µM (inactive); in [17] it was 62.2 µM (inactive). Besides, the GI50 in [18] is 46.3 µM (inactive); in [19], > 57.8 µM (inactive).
On to `CC1=C(C)Cc2c(O)ccc(O)c2C1`, for which the GI50 in test [1] was 18.2 µM (inactive); in [2] it was 16.8 µM (inactive); in [3], 16.9 µM (inactive); in test [4], 19.7 µM (inactive); in test [5], 47.4 µM (inactive); in [6], 16.2 µM (inactive). Moreover, the GI50 was 5.36 µM (inactive) in test [7]; 17.4 µM (inactive) in test [8]; 15.5 µM (inactive) in test [9]; 18.5 µM (inactive) in test [10]; 17 µM (inactive) in [11]; 83.9 µM (inactive) in test [12]. Besides, the GI50 is 15.9 µM (inactive) in [13]; 21.5 µM (inactive) in [14]; 16.6 µM (inactive) in test [15]; 12.6 µM (inactive) in [16]; 21.8 µM (inactive) in test [17]; 27.9 µM (inactive) in test [18]. Moreover, the GI50 in [19] is 18 µM (inactive).
For `O=C1Nc2ccccc2/C1=N/NC(=S)Nc1cccc(Cl)c1`, the GI50 was 29.4 µM (inactive) in test [1]; 17.7 µM (inactive) in test [2]; 19.5 µM (inactive) in test [3]; 18.7 µM (inactive) in [4]; 4.81 µM (inactive) in [5]; 4.33 µM (inactive) in test [20]. Besides, the GI50 in [7] was 8.87 µM (inactive); in test [8], 6.34 µM (inactive); in test [9], 4.53 µM (inactive); in test [10] it was 48.9 µM (inactive); in [11], 27.9 µM (inactive); in [12] it was 4.03 µM (inactive). Besides, the GI50 was 7.6 µM (inactive) in [13]; 10.9 µM (inactive) in test [14]; 10.8 µM (inactive) in [15]; 1.73 µM (inactive) in [16]; 14.4 µM (inactive) in test [17]; 6.97 µM (inactive) in [18]. Besides, in [19], the GI50 is 11.1 µM (inactive).
